The values below come from PMC3573263 (Chemical biology & drug design, 2013).

Experiment [1] has as its target T1, YopH (Yersinia pestis, UniProt O68720).
Experiment [2] deals with wild-type YopH (Yersinia pestis, UniProt O68720). The experiment in a line: biochemical. It is filed as binding.
The target of experiment [3] is T1, YopH. As to conditions: cited from earlier work.
Experiment [4] deals with YopH N-terminus (Yersinia pestis) (UniProt P08538). The experiment in a line: NMR. As to conditions: cited from earlier work.
YopH N-terminus (Yersinia pestis), sequence (P08538 1-129): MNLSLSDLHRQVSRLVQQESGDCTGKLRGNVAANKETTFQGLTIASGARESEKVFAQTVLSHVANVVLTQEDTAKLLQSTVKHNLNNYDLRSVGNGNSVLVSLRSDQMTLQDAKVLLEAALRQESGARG
In experiment [5] the target is N-terminus of YopH. Particulars: read-out: equilibrium dissociation constant; cited from earlier work.

wild-type YopH, sequence (O68720 164-468 limits assumed): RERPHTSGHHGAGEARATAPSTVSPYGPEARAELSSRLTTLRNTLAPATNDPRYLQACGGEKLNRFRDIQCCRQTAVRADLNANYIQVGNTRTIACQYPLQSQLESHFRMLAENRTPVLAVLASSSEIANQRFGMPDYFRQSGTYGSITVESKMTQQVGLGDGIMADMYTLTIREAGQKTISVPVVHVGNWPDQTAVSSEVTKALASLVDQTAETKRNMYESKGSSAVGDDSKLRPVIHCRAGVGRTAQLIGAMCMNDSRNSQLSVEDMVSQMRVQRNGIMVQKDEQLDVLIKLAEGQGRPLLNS
T1 sequence (O68720 164-468 limits assumed): as above

As for “(difluoro((3-(4-((((E)-furan-3-ylmethylidene)amino)oxy)methyl)phenyl)phenyl))methyl) phosphonic acid [compound 1]”, in experiment [1], the “inhibition of PTPase activity on microarrayed pTyr-EGFR peptide (in words)” value is listed as “dose-response relationship”. In addition, in experiment [2], the koff is 1.95 (0.95), the kon is reported as 73.4 (34.8) 1/Ms and the ΔG is given as −4.88 (0.43) kcal/ mol.
In experiment [2], `N[C@@H](Cc1ccc(OP(=O)(O)O)cc1)C(=O)O` [L-phosphotyrosine, reference compound] had a Kd of 24400 µM, a koff of 0.679, a kon of 0.278 M⁻¹ s⁻¹ and a ΔG of -2.2 kcal/mol.
Regarding DADE-pYLIPQQG, the “rate constant for dephosphorylation” value in experiment [3] is 2.23e+07 M⁻¹ s⁻¹.
Consider `O=C(O)c1ccc(/C=N/OCc2ccc(-c3cccc(C(F)(F)P(=O)(O)O)c3)cc2)o1` [compound 3, 5-((1E)-(((4-(3-(difluoro(phosphono)methyl)phenyl)phenyl)methoxy)imino)methyl)furan-2-carboxylic acid], for which, in experiment [2], the Kd turned out to be 239 µM, the koff was 0.945 (0.13) and the kon was 44.5 M⁻¹ s⁻¹.
For “(difluoro((3-(4-((((E)-furan-2-ylmethylidene)amino)oxy)methyl)phenyl)phenyl))methyl) phosphonic acid [compound 2]”, in experiment [2], the koff was 2.15 (0.89) and the ΔG is given as −5.28 (0.20) kcal/ mol.
For the molecule `O=[N+]([O-])c1ccc(OP(=O)(O)O)cc1` [pNPP, para-nitrophenylphosphate], the “catalytic activity of YopH toward substrate, lower than the pTyr-containing peptide” value in experiment [3] is 1300 fold.
As to “EGFR phosphopeptide (from UniProt P00533)”, the Kd in experiment [4] is 10 µM.
For the molecule DADEpYL [hexapeptide], the Kd in experiment [5] is 10 µM.
